Structures are written as SMILES.

For experiment [1], the system named is mitochondria in HeLa and A549 cells. Nature of the experiment: Co-stain with mitochondrial probe MitoTracker Deep Red FM (MTDR). The class given is cell-based. To be noted: 2 μM dye, 0.2 μM MTDR, HeLa and A549. How it is done:
FIG. 6 CLSM images of live HeLa and A549 cells stained with 2 μM IVP-02 and 0.2 μM MTDR, respectively. IVP-02: λex=488 nm, λem=500-650 nm; MTDR: λex=640 nm, λem=650-700 nm. Scale bar=20 μm.
In the above pictures, filamentous structures in cytoplasm of cancer cells were observed, which were typical morphology of mitochondria. Then co-stain experiments with commercial mitochondrial probe MitoTracker™ Deep Red FM (MTDR) were carried out (FIG. 6).
It was speculated that the membrane permeability of the probe was a key factor for its selectivity to cancer cells, since the plasma membrane of cancer cells was reported to be more permeable than normal cells. Consequently, IVP-02 was modified by lengthening the alkyl chain at the pyridine salt side and indole side, respectively, to tune the membrane permeability. The synthetic route to these new IVP molecules is depicted in Scheme 1. Their chemical structures were fully characterized by ^1H NMR, ^13C NMR, and ^19F NMR. Then cancer cells A549 were stained with the five new molecules, respectively. […] The co-stain experiments with MTDR also confirmed their location in mitochondria in A549 cells in FIG. 7C. In addition to A549 cells, the same experiments were also carried in HeLa cells (FIGS. 8 and 9).

The subject of experiment [2] is cancer cells (A549 and HeLa) and normal cells (COS7 and HLF). Nature of the experiment: CLSM imaging of separately stained cancer and normal cells. It is filed as cell-based. The note with it: 2 μM, 30 min, same staining and imaging conditions. As for the experimental part: FIG. 4 CLSM images of live cancer cells (A549 and HeLa) and normal cells (COS7 and HLF) stained with 2 μM IVP-02 for 30 min, respectively. λex=488 nm, λem=500-650 nm. Scale bar=20 μm.
The bioimaging properties of IVP-02 in live cells were investigated by confocal laser scanning microscopy (CLSM). Cancer cells (A549 and HeLa) and normal cells (COS7 and HLF) were stained with IVP-02, respectively. […] So IVP-02 holds the high potential to differentiate cancer and normal cells. To verify this speculation, cancer and normal cells were co-cultured and stained with IVP-02. […] To precisely confirm the selectivity of IVP-02 to cancer cells, cancer cells A549 and normal cells HLF (A549 and HLF are both human lung cells) were seeded on different cover glasses, respectively. Then the two cover glasses were put in the same dish and stained with IVP-02 at the same time.

Take `CC[n+]1ccc(/C=C/c2c[nH]c3ccccc23)cc1` [IVP-02]: the “co-localization coefficient with MTDR” value in experiment [1] is reported as “around 0.9”. In addition, the “fluorescence intensity in normal cells versus cancer cells” value in experiment [2] is recorded as “much weaker than that in cancer cells”.
